Measured values published in US20260325685A1, “Radiopharmaceutical Compositions Targeting Carbonic Anhydrase IX and Uses Thereof” (RayzeBio, Inc., priority 2023, published 2026).
Like-named read-outs stand apart in the source and are kept apart here.

Legend:
[1] = molecular target: T1, human CA-IX (Homo sapiens, UniProt Q16790); assay: Surface Plasmon Resonance (SPR) binding kinetics to recombinant human CA-IX (Biacore 8K, single-cycle kinetics, 1:1 binding model)
T1 construct: purchased Acro CA9-H82E3
Method in brief: (§1)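 Streptavidin capture, 1200-1800 RU; capture injection 180 s (CA-IX) vs 75 s (CA-XII). Analyte 100-0.39 nM, 9 conc., PBS-P+ pH 7.4 + 1% DMSO, 25° C. On 120 s, off 1200 s; ka/kd after reference subtraction and DMSO correction.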

[2] = molecular target: T2, human CA-XII (Homo sapiens, UniProt O43570); assay: Surface Plasmon Resonance (SPR) binding kinetics to recombinant human CA-XII (Biacore 8K, single-cycle kinetics, 1:1 binding model)
T2 construct: purchased Creative BioMart CA12-261H
Method in brief: as §1

[3] = Chelated Metal: Lu-175; SPR, 25° C., pH 7.4; read-out: CAIX KD
[4] = Chelated Metal: Lu-175, 25° C., pH 7.4, read-out: CAXII KD

T2 sequence (O43570 25-354): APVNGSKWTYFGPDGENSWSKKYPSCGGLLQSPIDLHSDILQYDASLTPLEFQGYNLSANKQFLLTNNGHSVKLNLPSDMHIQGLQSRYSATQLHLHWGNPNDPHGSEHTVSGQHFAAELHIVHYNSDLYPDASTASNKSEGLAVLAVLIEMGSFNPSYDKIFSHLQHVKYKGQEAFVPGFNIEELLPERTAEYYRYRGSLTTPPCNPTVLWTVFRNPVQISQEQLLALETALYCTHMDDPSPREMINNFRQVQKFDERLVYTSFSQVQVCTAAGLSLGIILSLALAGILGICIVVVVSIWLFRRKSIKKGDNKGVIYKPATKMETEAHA

SMILES	Kd [1, 3] [nM]	Kd [2, 4] [nM]	other results
NS(=O)(=O)c1nnc(NC(=O)C23CC(c4cn(CCNC(=O)[C@@H]5CN(C(=O)CN6CCN(CC(=O)O)CCN(CC(=O)O)CCN(CC(=O)O)CC6)CCN5C(=O)C[C@H](NC(=O)C[C@H](NC(=O)c5ccc(C6CC6)nn5)C(=O)O)C(=O)O)nn4)(C2)C3)s1.[Lu+3] [Compound 109.4]	< 1	2.5 to 10	
Cc1c(C(F)(F)F)n[nH]c1C(=O)N[C@@H](CC(=O)N[C@@H](CCC(=O)N1CCN(C(=O)CN2CCN(CC(=O)O)CCN(CC(=O)O)CCN(CC(=O)O)CC2)C[C@H]1C(=O)NCCn1cc(C23CCC(C(=O)Nc4nnc(S(N)(=O)=O)s4)(CC2)CC3)nn1)C(=O)O)C(=O)O.[Lu+3] [Compound 109.49]	< 1	< 1	
CC(CCC(=O)N[C@@H](CC(=O)N[C@@H](CC(=O)N1CCN(C(=S)Nc2ccc3c(c2)OCCN(Cc2cccc(C(=O)O)n2)CCOCCOCCN(Cc2cccc(C(=O)O)n2)CCO3)C[C@H]1C(=O)NCCn1cc(C23CC(C(=O)Nc4nnc(S(N)(=O)=O)s4)(C2)C3)nn1)C(=O)O)C(=O)O)(c1ccc(O)cc1)c1ccc(O)cc1 [Compound 130]			Kd ([1]; Chelated Metal: None; SPR, 25° C., pH 7.4; read-out: CAIX KD): < 1 nM; Ratio (CAXII/CAIX) ([1]; KD ratio CAXII/CAIX; Chelated Metal: None): *** (10 < *** ≤ 50); Kd ([2]; Chelated Metal: None, 25° C., pH 7.4, read-out: CAXII KD): 2.5 to 10 nM
CC(CCCC(=O)N1CCC(C(N)=O)(C(=O)NCC(=O)NC2(C(=O)NCCn3cc(C45CC(c6cn7nc(S(N)(=O)=O)sc7n6)(C4)C5)nn3)CCN(C(=O)CC[C@H](C(=O)O)N3CCN(CC(=O)O)CCN(CC(=O)O)CCN(CC(=O)O)CC3)CC2)CC1)(c1ccc(O)cc1)c1ccc(O)cc1.[Lu+3] [Compound 127.5]	< 1	2.5 to 10	
CC(CCC(=O)N[C@@H](CC(=O)N[C@@H](CCC(=O)NC1(C(=O)NCCOCCOCCNC(=O)CN2CCN(CC(=O)O)CCN(CC(=O)O)CCN(CC(=O)O)CC2)CN(C(=O)Cn2cc(CCCC(=O)Nc3nnc(S(N)(=O)=O)s3)nn2)C1)C(=O)O)C(=O)O)(c1ccc(O)cc1)c1ccc(O)cc1.[Lu+3] [Compound 103.1]	1 to 2.5	2.5 to 10	
CC(CCC(=O)N[C@@H](CC(=O)N[C@@H](CC(=O)N1CCN(C(=O)CN2CCN(CC(=O)O)CCN(CC(=O)O)CCN(CC(=O)O)CC2)C[C@H]1C(=O)NCCn1cc(-c2ccc(C(=O)Nc3nnc(S(N)(=O)=O)s3)cc2Cl)nn1)C(=O)O)C(=O)O)(c1ccc(O)cc1)c1ccc(O)cc1.[Lu+3] [Compound 107.36]	< 1	> 10	
NS(=O)(=O)c1nnc(NC(=O)C23CC(c4cn(C[C@H]5CN(C(=O)CN6CCN(CC(=O)O)CCN(CC(=O)O)CCN(CC(=O)O)CC6)CCN5C(=O)C[C@H](NC(=O)[C@@H]5COCCN5C(=O)Cc5n[nH]c6ccccc56)C(=O)O)nn4)(C2)C3)s1.[Lu+3] [Compound 114.1]	1 to 2.5	> 10	
NS(=O)(=O)c1nnc(NC(=O)C23CC(c4cn(CCNC(=O)[C@@H]5CN(C(=O)CN6CCN(CC(=O)O)CCN(CC(=O)O)CCN(CC(=O)O)CC6)CCN5C(=O)C[C@H](NC(=O)C[C@H](NC(=O)C5CC6(C5)CC(F)(F)C6)C(=O)O)C(=O)O)nn4)(C2)C3)s1.[Lu+3] [Compound 109.61]	1 to 2.5	2.5 to 10	
NS(=O)(=O)c1nnc(NC(=O)C23CCC(c4cn(CCNC(=O)[C@@H]5CN(C(=O)CN6CCN(CC(=O)O)CCN(CC(=O)O)CCN(CC(=O)O)CC6)CCN5C(=O)CNC(=O)C5(C(=O)O)CCN(C(=O)CCCc6ccc(I)cc6)CC5)nn4)(CC2)CC3)s1.[Lu+3] [Compound 112.2]	< 1	2.5 to 10	
CC(CCCC(=O)N1CCC(C(N)=O)(C(=O)NCC(=O)N2CCN(C(=O)CN3CCN(CC(=O)O)CCN(CC(=O)O)CCN(CC(=O)O)CC3)C[C@H]2C(=O)NCCn2cc(COc3ccc4nc(S(N)(=O)=O)sc4c3)nn2)CC1)(c1ccc(O)cc1)c1ccc(O)cc1.[Lu+3] [Compound 107.49]	< 1	> 10	
CC(CCC(=O)N[C@@H](CC(=O)N[C@@H](CC(=O)N[C@@H](CCCn1cc(C2CCC(C(=O)Nc3nnc(S(N)(=O)=O)s3)CC2)nn1)C(=O)NCCOCCOCCNC(=O)CN1CCN(CC(=O)O)CCN(CC(=O)O)CCN(CC(=O)O)CC1)C(=O)O)C(=O)O)(c1ccc(O)cc1)c1ccc(O)cc1.[Lu+3] (some centres unmarked) [Compound 100.3]	< 1	2.5 to 10	
NS(=O)(=O)c1nnc(NC(=O)C23CC(c4cn(CCNC(=O)[C@@H]5CN(C(=O)CN6CCN(CC(=O)O)CCN(CC(=O)O)CCN(CC(=O)O)CC6)CCN5C(=O)C[C@H](NC(=O)C[C@H](NC(=O)Cc5n[nH]c6ccc(F)cc56)C(=O)O)C(=O)O)nn4)(C2)C3)s1.[Lu+3] [Compound 109.11]	< 1	2.5 to 10	
NS(=O)(=O)c1nnc(NC(=O)C23CC(c4cn(CCNC(=O)[C@@H]5CN(C(=O)CN6CCN(CC(=O)O)CCN(CC(=O)O)CCN(CC(=O)O)CC6)CCN5C(=O)CNC(=O)C5(C(=O)O)CCN(C(=O)Cc6ccc7cn[nH]c7c6)CC5)nn4)(C2)C3)s1.[Lu+3] [Compound 112.1]	2.5 to 10	> 10	
NS(=O)(=O)c1nnc(NC(=O)C23CCC(c4cn(CCNC(=O)[C@@H]5CN(C(=O)CN6CCN(CC(=O)O)CCN(CC(=O)O)CCN(CC(=O)O)CC6)CCN5C(=O)CC[C@H](NC(=O)C[C@H](NC(=O)c5ccc(S(F)(F)(F)(F)F)cc5)C(=O)O)C(=O)O)nn4)(CC2)CC3)s1.[Lu+3] [Compound 109.58]	< 1	< 1	
CC(CCC(=O)N[C@@H](CC(=O)N[C@@H](Cc1cn([C@@H](CCCCn2cc(C34CC(C(=O)Nc5nnc(S(N)(=O)=O)s5)(C3)C4)nn2)C(=O)NCCOCCOCCNC(=O)CN2CCN(CC(=O)O)CCN(CC(=O)O)CCN(CC(=O)O)CC2)nn1)C(=O)O)C(=O)O)(c1ccc(O)cc1)c1ccc(O)cc1.[Lu+3] [Compound 101.2]	< 1	2.5 to 10	
CC(CCC(=O)N[C@@H](CC(=O)N[C@@H](CC(=O)N1CCN(C(=O)CN2CCN(CC(=O)O)CCN(CC(=O)O)CC2)C[C@H]1C(=O)NCCn1cc(C23CC(C(=O)Nc4nnc(S(N)(=O)=O)s4)(C2)C3)nn1)C(=O)O)C(=O)O)(c1ccc(O)cc1)c1ccc(O)cc1.[Cu+2] [Compound 126.4]			Kd ([1]; Chelated Metal: Cu (cold); SPR, 25° C., pH 7.4; read-out: CAIX KD): < 1 nM; Kd ([2]; Chelated Metal: Cu (cold), 25° C., pH 7.4, read-out: CAXII KD): > 10 nM
CC(CCCC(=O)N1CCC(C(N)=O)(C(=O)NCC(=O)N2CCN(C(=O)CC[C@H](C(=O)O)N3CCN(CC(=O)O)CCN(CC(=O)O)CCN(CC(=O)O)CC3)C[C@@H]2C(=O)NCCn2cc(C34CC(C(=O)Nc5nnc(S(N)(=O)=O)s5)(C3)C4)nn2)CC1)(c1ccc(O)cc1)c1ccc(O)cc1.[Lu+3] [Compound 127.2]	< 1	> 10	
CC(CCC(=O)N[C@@H](CC(=O)N[C@@H](CC(=O)N1CCN(C(=O)[C@H](CCC(=O)NCCOCCOCCOCCOCCOCCOCCOCCOCCC(=O)N[C@@H](CCCCNC(=O)CCCc2ccc(I)cc2)C(=O)O)NC(=O)CN2CCN(CC(=O)O)CCN(CC(=O)O)CCN(CC(=O)O)CC2)C[C@H]1C(=O)NCCn1cc(C23CC(C(=O)Nc4nnc(S(N)(=O)=O)s4)(C2)C3)nn1)C(=O)O)C(=O)O)(c1ccc(O)cc1)c1ccc(O)cc1.[Lu+3] (racemic) [Compound 125]			Kd ([1]; read-out: CAIX KD; Chelated Metal: Lu-175; SPR, 25° C., pH 7.4): 1 to 2.5 nM; Kd ([2]; read-out: CAXII KD, Chelated Metal: Lu-175, 25° C., pH 7.4): > 10 nM
NS(=O)(=O)c1nnc(NC(=O)C23CC(c4cn(CCNC(=O)[C@@H]5CN(C(=O)CN6CCN(CC(=O)O)CCN(CC(=O)O)CCN(CC(=O)O)CC6)CCN5C(=O)C[C@H](Nc5ncc(C(=O)NCCc6ccc(F)c(F)c6)cn5)C(=O)O)nn4)(C2)C3)s1.[Lu+3] [Compound 111.8]	2.5 to 10	> 10	
NS(=O)(=O)c1nnc(NC(=O)C23CC(c4cn(CCNC(=O)[C@@H]5CN(C(=O)CN6CCN(CC(=O)O)CCN(CC(=O)O)CCN(CC(=O)O)CC6)CCN5C(=O)CNC(=O)C5(C(=O)O)CCN(C(=O)c6ccc(C7CC7)cc6)CC5)nn4)(C2)C3)s1.[Lu+3] [Compound 112.9]	< 1	> 10	
